Earlier results in PubChem BioAssay AID1259409 (Chemical Carcinogenesis Research Information System (CCRIS), 2018).

System: rodent chemically induced tumor inhibition, incidence and multiplicity
Assay: CCRIS tumor inhibitor studies
Conditions: Promoter: NONE USED

## CC(=O)OC/C=C(C)/C=C/C=C(C)/C=C/C1=C(C)CCCC1(C)C
Carcinogen: 1,2-DIMETHYLHYDRAZINE, 540-73-8, Dose [Inhibitor]: 0.8 MMOL/KG DIET DAILY STARTING 12 D AFTER CARCINOGEN TREATMENT THROUGH ABOUT 8 MO AFTER CARCINOGEN DOSE (STUDY DURATION, Route [Inhibitor]: ORAL, Species: RAT, Strain/Sex: F344/MALE, Target Tissue: Type of Lesion: COLON: ADENOCARCINOMA, Dose [Carcinogen]: 150 MG/KG BW ONCE
  tumour outcome (control, treated, inhibition, significance): 10/39 (26%), 7/30 (23%), 12%, not significant
Carcinogen: 1,2-DIMETHYLHYDRAZINE, 540-73-8, Dose [Inhibitor]: 0.8 MMOL/KG DIET DAILY STARTING 12 D AFTER CARCINOGEN TREATMENT THROUGH ABOUT 8 MO AFTER CARCINOGEN DOSE (STUDY DURATION, Route [Inhibitor]: ORAL, Species: RAT, Strain/Sex: F344/MALE, Target Tissue: Type of Lesion: COLON: ADENOMA, Dose [Carcinogen]: 150 MG/KG BW ONCE
  tumour outcome (control, treated, inhibition, significance): 23/39 (59%), 9/30 (30%), 49%, p<0.05
Carcinogen: 7,12-DIMETHYLBENZ[A]ANTHRACENE, 57-97-6, Dose [Inhibitor]: 0, 328 MG/KG OF DIET FROM DAY 34 TO 54 OF AGE (STUDY DURATION: 200 D), Route [Inhibitor]: ORAL, Species: RAT, Strain/Sex: SPRAGUE-DAWLEY/FEMALE, Target Tissue: Type of Lesion: MAMMARY GLAND: ADENOCARCINOMA, Dose [Carcinogen]: 15 MG/RAT ONCE AT 55 D OF AGE
  tumour outcome (control, treated, inhibition, significance): 93%, 97%, -4%, not calculated
Carcinogen: 7,12-DIMETHYLBENZ[A]ANTHRACENE, 57-97-6, Dose [Inhibitor]: 0, 328 MG/KG OF DIET FROM DAY 34 TO 54 OF AGE (STUDY DURATION: 200 D), Route [Inhibitor]: ORAL, Species: RAT, Strain/Sex: SPRAGUE-DAWLEY/FEMALE, Target Tissue: Type of Lesion: MAMMARY GLAND: BENIGN TUMORS, Dose [Carcinogen]: 15 MG/RAT ONCE AT 55 D OF AGE
  tumour outcome (control, treated, inhibition, significance): 28%, 40%, -43%, not calculated
Carcinogen: 7,12-DIMETHYLBENZ[A]ANTHRACENE, 57-97-6, Dose [Inhibitor]: 0, 350 MG/KG 1/WK FROM 40-90 D OF AGE THEN 0, 250 MG/KG 1/WK FROM 90-180 D OF AGE AND 0, 200 MG/KG 1/WK FROM 180-240 D O, Dose [Inhibitor]: 0, 350 MG/KG 1/WK FROM 40-90 D OF AGE THEN 0, 250 MG/KG 1/WK FROM 90-180 D OF AGE AND 0, 200 MG/KG 1/WK FROM 180-240 D O, Route [Inhibitor]: INTRAPERITONEAL, Species: RAT, Strain/Sex: SPRAGUE DAWLEY/FEMALE, Target Tissue: Type of Lesion: MAMMARY GLAND: ADENOCARCINOMA, FIBROADENOMA, Dose [Carcinogen]: 5 MG IN 0.2 ML SESAME OIL 1/2 D FOR 12 D BEGINNING AT 50 D OF AGE
  tumour outcome (control, treated, inhibition, significance): 100%, 48%, 52%, p<0.001
Carcinogen: 7,12-DIMETHYLBENZ[A]ANTHRACENE, 57-97-6, Dose [Inhibitor]: 0.2 MILLIMOLAR IN DIET DAILY FOR 27 WK STARTING 3 D AFTER LAST CARCINOGEN DOSE AND CONTINUING THE END OF THE STUDY (STUD, Route [Inhibitor]: ORAL, Species: MOUSE, Strain/Sex: BDF/FEMALE, Target Tissue: Type of Lesion: MAMMARY GLAND: ADENOCARCINOMA, Dose [Carcinogen]: 1 MG/WK FOR 6 WK
  tumour outcome (control, treated, inhibition, significance): 22/75 (29%), 31/75 (41%), -41%, not significant
Carcinogen: 7,12-DIMETHYLBENZ[A]ANTHRACENE, 57-97-6, Dose [Inhibitor]: 0.2 MILLIMOLAR IN DIET DAILY FOR 27 WK STARTING 3 D AFTER LAST CARCINOGEN DOSE AND CONTINUING THROUGH THE END OF THE STU, Route [Inhibitor]: ORAL, Species: MOUSE, Strain/Sex: BDF/FEMALE, Target Tissue: Type of Lesion: MAMMARY GLAND: ADENOCANTHOMA, Dose [Carcinogen]: 1 MG/WK FOR 6 WK
  tumour outcome (control, treated, inhibition, significance): 20/75 (27%), 19/75 (25%), 7%, not significant
Carcinogen: 7,12-DIMETHYLBENZ[A]ANTHRACENE, 57-97-6, Dose [Inhibitor]: 68 MG/KG DIET DAILY FOR 11 WK STARTING 3 D AFTER CARCINOGEN TREATMENT (STUDY DURATION: 11 WK), Route [Inhibitor]: ORAL, Species: RAT, Strain/Sex: SPRAGUE-DAWLEY/FEMALE, Target Tissue: Type of Lesion: MAMMARY GLAND: CARCINOMA, Dose [Carcinogen]: 20 MG/ML SESAME OIL ONCE AT 53 D OF AGE
  tumour outcome (control, treated, inhibition, significance): 100%, 92%, 8%, not significant
Carcinogen: 7,12-DIMETHYLBENZ[A]ANTHRACENE, 57-97-6, Dose [Inhibitor]: 204 MG/KG DIET DAILY FOR 12 WK STARTING 3 D AFTER CARCINOGEN TREATMENT (STUDY DURATION: 12 WK), Route [Inhibitor]: ORAL, Species: RAT, Strain/Sex: SPRAGUE-DAWLEY/FEMALE, Target Tissue: Type of Lesion: MAMMARY GLAND: CARCINOMA, Dose [Carcinogen]: 10 MG/ML SESAME OIL ONCE AT 53 D OF AGE
  tumour outcome (control, treated, inhibition, significance): 90%, 74%, 18%, not significant
